Assay results from patent US8450313B2, “2,3-diaryl- or heteroaryl-substituted 1,1,1-trifluoro-2-hydroxypropyl compounds” (Hoffmann-La Roche Inc., priority 2009, dated 2013).

Molecular target: T1, full length human recombinant glucocorticoid receptor (Homo sapiens, UniProt P04150)
T1 construct: It contains some partially purified full length human recombinant glucocorticoid receptor; purchased Panvera/Invitrogen PV4302
T1 sequence (P04150 1-777): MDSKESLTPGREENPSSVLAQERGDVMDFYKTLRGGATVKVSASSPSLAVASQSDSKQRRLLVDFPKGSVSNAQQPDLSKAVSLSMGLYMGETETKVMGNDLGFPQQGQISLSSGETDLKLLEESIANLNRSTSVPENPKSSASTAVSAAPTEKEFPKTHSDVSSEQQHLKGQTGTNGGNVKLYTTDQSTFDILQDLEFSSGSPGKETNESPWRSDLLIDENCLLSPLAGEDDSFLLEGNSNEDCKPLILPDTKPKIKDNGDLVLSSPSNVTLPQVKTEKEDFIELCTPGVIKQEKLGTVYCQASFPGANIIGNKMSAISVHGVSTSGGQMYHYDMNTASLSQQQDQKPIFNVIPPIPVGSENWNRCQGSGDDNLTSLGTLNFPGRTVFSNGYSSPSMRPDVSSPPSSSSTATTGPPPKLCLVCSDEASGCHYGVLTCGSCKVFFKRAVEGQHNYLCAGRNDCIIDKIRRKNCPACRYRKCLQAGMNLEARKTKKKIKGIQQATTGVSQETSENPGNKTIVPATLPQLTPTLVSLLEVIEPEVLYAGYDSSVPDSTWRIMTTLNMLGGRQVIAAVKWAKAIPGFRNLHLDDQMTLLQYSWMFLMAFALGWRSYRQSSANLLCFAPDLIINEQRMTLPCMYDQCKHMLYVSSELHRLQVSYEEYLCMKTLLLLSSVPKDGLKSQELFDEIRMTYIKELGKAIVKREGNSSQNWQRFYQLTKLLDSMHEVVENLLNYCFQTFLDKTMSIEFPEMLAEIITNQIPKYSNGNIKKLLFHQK
Assay: Glucocorticoid Receptor Binding Assay (Glucocorticoid Receptor Competitor Assay far red kit, fluorescence polarization)
Conditions: competition with fluorescent GR ligand Fluormone GS Far Red, 3 hours at 22° C., pH 7.4; Ki calculated from IC50 by Cheng-Prusoff
Experimental: Glucocorticoid Receptor Binding Assay
The ability of the substances to bind to the glucocorticoid receptor was determined with the help of a commercial Glucocorticoid Receptor Competitor Assay far red kit provided by Panvera/Invitrogen (PV4302). This kit is used as provided by the supplier. It contains some partially purified full length human recombinant glucocorticoid receptor, a coactivator related GR stabilizing peptide, a tight-binding fluorescent GR ligand Fluormone™ GS Far Red as labeled tracer and a screening buffer. All reagents are prepared and the assay is run according to the recommendations of the kit manufacturer.
Briefly, the GR stabilizing peptide and the human recombinant glucocorticoid receptor are both diluted with the screening buffer (pH 7.4) and are gently mixed (no vortexing) just before the assay and kept on ice until use. The fluorescent-labeled ligand is also diluted with the screening buffer just before the assay and kept on ice until use. The substances to test are pre-diluted in pure DMSO then some water is added to get an intermediate 4.2% DMSO stock solution. Ten microliter of the intermediate stock solution is gently mixed with 5 μA of diluted fluorescent-labeled ligand and 5 μl of diluted human recombinant glucocorticoid receptor in a 384-well plate (low volume, ultraclear, glass plate from Greiner ref 788896). The plate is centrifuged, sealed and incubated for 3 hours at 22° C. in the dark. The polarized fluorescence is measured with a Zeiss-HTS reader or any equivalent equipment (610-660 nm).
All compounds were tested to determine IC50 in a serial dilution experiment. The concentration at which 50% inhibition of the fluorescent GR ligand Fluormone™ GS Far Red is obtained (the IC50) is determined after fitting with a sigmoidal dose-response model of a plot of the logarithm of the concentration versus percent inhibition measured for the different concentrations. Ki's were calculated from IC50 based on Cheng-Prusoff equation (Cheng, Y, Prusoff, W H (1973) Biochem Pharmacol 22, 3099-3108): Ki=IC50/[1+D/Kd] wherein D is the concentration of the fluorescent ligand and Kd is the binding constant for the fluorescent ligand binding to the receptor under the conditions used in the competition experiment.

Row | SMILES | Ki
1 | COC(=O)c1ccc(-c2ccc([C@H](C)[C@](O)(c3ccc4c(c3)N(C)C(=O)CO4)C(F)(F)F)c(Cl)c2)cc1F (racemic) [Example 25, 3′-Chloro-3-fluoro-4′-[3,3,3-trifluoro-2-hydroxy-1-methyl-2-(4-methyl-3-oxo-3,4-dihydro-2H-benzo[1,4]oxazin-6-yl)-propyl]-biphenyl-4-carboxylic acid methyl ester] | 2.8 nM
2 | C[C@H](c1ccc(Oc2ccc(F)c(C(=O)O)c2)cc1Cl)[C@@](O)(c1ccc2c(c1)N(C)C(=O)CO2)C(F)(F)F (racemic) [Example 56, 5-{3-Chloro-4-[3,3,3-trifluoro-2-hydroxy-1-methyl-2-(4-methyl-3-oxo-3,4-dihydro-2H-benzo[1,4]oxazin-6-yl)-propyl]-phenoxy}-2-fluoro-benzoic acid] | 0.3 nM
3 | C[C@H](c1ccc(Oc2ccc(Cl)c(C(=O)O)c2)cc1Cl)[C@@](O)(c1ccc2c(c1)N(C)C(=O)CO2)C(F)(F)F (racemic) [Example 58, 2-Chloro-5-{3-chloro-4-[3,3,3-trifluoro-2-hydroxy-1-methyl-2-(4-methyl-3-oxo-3,4-dihydro-2H-benzo[1,4]oxazin-6-yl)-propyl]-phenoxy}-benzoic acid] | 0.3 nM
4 | C[C@H](c1ccc(Oc2ccc(C(=O)O)c(Cl)c2)cc1Cl)[C@@](O)(c1ccc2c(c1)N(C)C(=O)CO2)C(F)(F)F (racemic) [Example 59, 2-Chloro-4-{3-chloro-4-[3,3,3-trifluoro-2-hydroxy-1-methyl-2-(4-methyl-3-oxo-3,4-dihydro-2H-benzo[1,4]oxazin-6-yl)-propyl]-phenoxy}-benzoic acid] | 1 nM
5 | C[C@H](c1ccc(Oc2ccc(C(=O)O)cc2)cc1Cl)[C@@](O)(c1ccc2c(c1)N(C)C(=O)CO2)C(F)(F)F (racemic) [Example 60, 4-{3-Chloro-4-[3,3,3-trifluoro-2-hydroxy-1-methyl-2-(4-methyl-3-oxo-3,4-dihydro-2H-benzo[1,4]oxazin-6-yl)-propyl]-phenoxy}-benzoic acid] | 2.3 nM
6 | C[C@H](c1ccc(Oc2cccc(C(=O)O)c2)cc1Cl)[C@@](O)(c1ccc2c(c1)N(C)C(=O)CO2)C(F)(F)F (racemic) [Example 61, 3-{3-Chloro-4-[3,3,3-trifluoro-2-hydroxy-1-methyl-2-(4-methyl-3-oxo-3,4-dihydro-2H-benzo[1,4]oxazin-6-yl)-propyl]-phenoxy}-benzoic acid] | 1 nM
7 | C[C@H](c1ccc(Oc2ccc(C(=O)O)c(Cl)n2)cc1Cl)[C@@](O)(c1ccc2c(c1)N(C)C(=O)CO2)C(F)(F)F (racemic) [Example 63, 2-Chloro-6-{3-chloro-4-[3,3,3-trifluoro-2-hydroxy-1-methyl-2-(4-methyl-3-oxo-3,4-dihydro-2H-benzo[1,4]oxazin-6-yl)-propyl]-phenoxy}-nicotinic acid] | 0.8 nM
8 | CCN1C(=O)COc2ccc([C@](O)([C@H](C)c3ccc(-c4ccc(C(=O)O)c(Cl)c4)cc3Cl)C(F)(F)F)cc21 (racemic) [Example 64, 3,3′-Dichloro-4′-[2-(4-ethyl-3-oxo-3,4-dihydro-2H-benzo[1,4]oxazin-6-yl)-3,3,3-trifluoro-2-hydroxy-1-methyl-propyl]-biphenyl-4-carboxylic acid] | 97.9 nM
9 | C[C@H](c1ccc(-c2ccc(C(=O)O)c(F)c2)cc1Cl)[C@@](O)(c1ccc2oc(=O)n(C)c2c1)C(F)(F)F (racemic) [Example 118, 3′-Chloro-3-fluoro-4′-[3,3,3-trifluoro-2-hydroxy-1-methyl-2-(3-methyl-2-oxo-2,3-dihydro-benzooxazol-5-yl)-propyl]-biphenyl-4-carboxylic acid] | 1 nM
10 | CCOC(=O)C(C)(C)Oc1ccc([C@@H](C)[C@@](O)(c2ccc3c(c2)N(C)C(=O)CO3)C(F)(F)F)c(Cl)c1 (racemic) [Example 206, 2-{3-Chloro-4-[3,3,3-trifluoro-2-hydroxy-1-methyl-2-(4-methyl-3-oxo-3,4-dihydro-2H-benzo[1,4]oxazin-6-yl)-propyl]-phenoxy}-2-methyl-propionic acid ethyl ester] | 6.2 nM
11 | COC(=O)c1cnc(Oc2ccc([C@@H](C)[C@@](O)(c3ccc4c(c3)N(C)C(=O)CO4)C(F)(F)F)c(Cl)c2)cc1Cl (racemic) [Example 210, 4-Chloro-6-{3-chloro-4-[3,3,3-trifluoro-2-hydroxy-1-methyl-2-(4-methyl-3-oxo-3,4-dihydro-2H-benzo[1,4]oxazin-6-yl)-propyl]-phenoxy}-nicotinic acid methyl ester] | 1.5 nM
12 | COC(=O)c1cnc(Oc2ccc([C@@H](C)[C@@](O)(c3ccc4c(c3)N(C)C(=O)CO4)C(F)(F)F)c(Cl)c2)c(Cl)c1 (racemic) [Example 212, 5-Chloro-6-{3-chloro-4-[3,3,3-trifluoro-2-hydroxy-1-methyl-2-(4-methyl-3-oxo-3,4-dihydro-2H-benzo[1,4]oxazin-6-yl)-propyl]-phenoxy}-nicotinic acid methyl ester] | 1 nM
13 | C[C@H](c1ccc(Oc2ncc(C(=O)O)cc2Cl)cc1Cl)[C@@](O)(c1ccc2c(c1)N(C)C(=O)CO2)C(F)(F)F (racemic) [Example 213, 5-Chloro-6-{3-chloro-4-[3,3,3-trifluoro-2-hydroxy-1-methyl-2-(4-methyl-3-oxo-3,4-dihydro-2H-benzo[1,4]oxazin-6-yl)-propyl]-phenoxy}-nicotinic acid] | 1.7 nM
14 | CCOC(=O)c1ccc(Oc2ccc([C@@H](C)[C@@](O)(c3ccc4c(c3)N(C)C(=O)CO4)C(F)(F)F)c(Cl)c2)nc1C(F)(F)F (racemic) [Example 214, 6-{3-Chloro-4-[3,3,3-trifluoro-2-hydroxy-1-methyl-2-(4-methyl-3-oxo-3,4-dihydro-2H-benzo[1,4]oxazin-6-yl)-propyl]-phenoxy}-2-trifluoromethyl-nicotinic acid ethyl ester] | 4.1 nM
15 | C[C@H](c1ccc(Oc2ccc(C(=O)O)c(C(F)(F)F)c2)cc1Cl)[C@@](O)(c1ccc2c(c1)N(C)C(=O)CO2)C(F)(F)F (racemic) [Example 220, 4-{3-Chloro-4-[3,3,3-trifluoro-2-hydroxy-1-methyl-2-(4-methyl-3-oxo-3,4-dihydro-2H-benzo[1,4]oxazin-6-yl)-propyl]-phenoxy}-2-trifluoromethyl-benzoic acid] | 1.1 nM
16 | COC(=O)c1cnc(Oc2ccc([C@@H](C)[C@@](O)(c3ccc4c(c3)N(C)C(=O)CO4)C(F)(F)F)c(Cl)c2)nc1C(F)(F)F (racemic) [Example 225, 2-{3-Chloro-4-[3,3,3-trifluoro-2-hydroxy-1-methyl-2-(4-methyl-3-oxo-3,4-dihydro-2H-benzo[1,4]oxazin-6-yl)-propyl]-phenoxy}-4-trifluoromethyl-pyrimidine-5-carboxylic acid methyl ester] | 7.8 nM
17 | COC(=O)c1cnc(Oc2ccc([C@@H](C)[C@@](O)(c3ccc4c(c3)N(C)C(=O)CO4)C(F)(F)F)c(Cl)c2)nc1 (racemic) [Example 226, 2-{3-Chloro-4-[3,3,3-trifluoro-2-hydroxy-1-methyl-2-(4-methyl-3-oxo-3,4-dihydro-2H-benzo[1,4]oxazin-6-yl)-propyl]-phenoxy}-pyrimidine-5-carboxylic acid methyl ester] | 5.9 nM
18 | COC(=O)c1cnc(Oc2ccc([C@@H](C)[C@@](O)(c3ccc4c(c3)N(C)C(=O)CO4)C(F)(F)F)c(Cl)c2)cn1 (racemic) [Example 227, 5-{3-Chloro-4-[3,3,3-trifluoro-2-hydroxy-1-methyl-2-(4-methyl-3-oxo-3,4-dihydro-2H-benzo[1,4]oxazin-6-yl)-propyl]-phenoxy}-pyrazine-2-carboxylic acid methyl ester] | 3 nM
